Key:
Assay type in all cases: physicochemical
[1] = Suspension formulation stability in 0.5% MC pH 3 buffer; details: suspension in 0.5% MC pH 3 buffer (100 mM citrate), 30 mg/mL, RT, Day 7
Experimental: About 9 mg of free base Form II (Lot#1) was added into 0.3 mL of 0.5% MC pH 3 buffer, and stirred at RT for 30 min to make a suspension with 30 mg/mL drug loading (Day 0 sample). The suspension samples in vials, prepared at the same time, were kept at RT for 3 or 7 days. At each time point, the whole suspension in a vial was dissolved in 8.7 mL water/ACN (1:1, v/v) and then was analyzed by HPLC. Sedimentation of suspension was checked by visual observation, and the solids in another vial were tested by PLM and XRPD.

[2] = DVS moisture sorption (hygroscopicity)
Experimental: Moisture sorption/desorption data were collected on a DVS instrument. About 75 mg of a sample was placed into a tared sample chamber and automatically weighed. The anhydrate was analyzed with the setting parameters in the table below.

[3] = Purity of filtrates / degradation in bio-relevant media (FeSSIF); details: for HPLC Purity API, Sample 1 / impurity RRT 1.74 / impurity RRT 1.91 / impurity RRT 1.95 / HPLC Purity API, Sample 2 / impurity RRT 1.09: FeSSIF filtrate, 220 nm; for HPLC Purity API, Sample 1 / impurity RRT 1.74 / impurity RRT 1.91 / impurity RRT 1.95 / impurity RRT 1.09: Sample 1; for Filtrate Purity 220 nm-24 h: 37° C., starting purity 99.26%
Experimental: About 15 mg of freebase Form II was weighed into sample vials, and then 3 mL of each media was added to make suspensions, respectively. At 0.5, 2 and 24 hours, about 1 mL of each suspension was filtered, the filtrate was analyzed by HPLC and pH, and the filter cake was analyzed by XRPD. Duplicated samples were prepared for each media.
Compared to control pH buffers, the solubility increased to ˜20 μg/mL in FaSSIF and ˜100 μg/mL in FeSSIF, possibly due to the solubilization effect of bile salt. […] Compared to FaSSIF, concentration of bile salt is 5-fold in FeSSIF. The degradation issue in FeSSIF was confirmed with another two batches (Lot #3 and Lot #2) of freebase Form II at 0.5-8 hours, as summarized in Table 12 and Table 13. Several impurities increased rapidly with time.
HPLC analysis was performed with an Agilent HPLC 1260 series instrument.

## CNC(=O)c1ccc(N2CCN(Cc3cnc4cc(C5CC5)c(=O)[nH]c4c3)CC2)cn1 [Freebase Form II, 5-(4-((7-cyclopropyl-6-oxo-5,6-dihydro-1,5-naphthyridin-3-yl)methyl)piperazin-1-yl)-N-methylpicolinamide]
[1]
  Purity (area %, 220 nm) Day 7: 99.26 area %
[2]
  crystalline form after DVS test: remained unchanged
  hygroscopicity (DVS): non-hygroscopic
[2]; at 80% RH, 25° C.
  water uptake (DVS): 0.19%
[3]; FeSSIF
  purity of filtrates: decreased rapidly
  Filtrate Purity 220 nm-24 h: 55%
[3]; 0.5 hr, listed as Lot# 2
  HPLC Purity API, Sample 1: 96.72 area %
  impurity RRT 1.74: 0.33 area %
  impurity RRT 1.91: 1.00 area %
  impurity RRT 1.95: 0.32 area %
  HPLC Purity API, Sample 2: 96.89 area %
[3]; 0.5 hr, listed as Lot# 3
  HPLC Purity API, Sample 1: 92.74 area %
  impurity RRT 1.74: 0.27 area %
  impurity RRT 1.91: 0.72 area %
  impurity RRT 1.95: 0.24 area %
  HPLC Purity API, Sample 2: 92.57 area %
[3]; 2 hr, listed as Lot# 2
  HPLC Purity API, Sample 1: 80.67 area %
  impurity RRT 1.09: 1.18 area %
  impurity RRT 1.74: 1.52 area %
  impurity RRT 1.91: 5.63 area %
  impurity RRT 1.95: 0.89 area %
  HPLC Purity API, Sample 2: 77.22 area %
[3]; 2 hr, listed as Lot# 3
  HPLC Purity API, Sample 1: 91.52 area %
  impurity RRT 1.09: 0.22 area %
  impurity RRT 1.74: 0.35 area %
  impurity RRT 1.91: 1.09 area %
  impurity RRT 1.95: 0.39 area %
  HPLC Purity API, Sample 2: 90.33 area %
[3]; 4 hr, listed as Lot# 2
  HPLC Purity API, Sample 1: 65.06 area %
  impurity RRT 1.09: 3.56 area %
  impurity RRT 1.74: 2.64 area %
  impurity RRT 1.91: 9.12 area %
  impurity RRT 1.95: 1.67 area %
  HPLC Purity API, Sample 2: 60.63 area %
[3]; 4 hr, listed as Lot# 3
  HPLC Purity API, Sample 1: 84.44 area %
  impurity RRT 1.09: 1.00 area %
  impurity RRT 1.74: 0.82 area %
  impurity RRT 1.91: 3.55 area %
  impurity RRT 1.95: 0.69 area %
  HPLC Purity API, Sample 2: 77.77 area %
[3]; 8 hr, listed as Lot# 2
  HPLC Purity API, Sample 1: 50.99 area %
  impurity RRT 1.09: 6.24 area %
  impurity RRT 1.74: 5.16 area %
  impurity RRT 1.91: 8.77 area %
  impurity RRT 1.95: 3.62 area %
  HPLC Purity API, Sample 2: 47.77 area %
[3]; 8 hr, listed as Lot# 3
  HPLC Purity API, Sample 1: 66.91 area %
  impurity RRT 1.09: 4.10 area %
  impurity RRT 1.74: 2.41 area %
  impurity RRT 1.91: 7.91 area %
  impurity RRT 1.95: 1.57 area %
  HPLC Purity API, Sample 2: 57.55 area %
[3]; SGF
  Filtrate Purity 220 nm-24 h: 99.28%

Reference: US20240174669A1, “CRYSTALLINE FORMS OF A PARP1 INHIBITOR” (XinThera, Inc., priority 2022, published 2024)
